Measured values reported in patent publication US8450053B2, “ZAP-70 as predictor and modulator of effector function of T cells” (University of Maryland, Baltimore, priority 2007, dated 2013).
Entries after “also recorded” stand apart in the source; their conditions may differ.

What was measured:
Assay type in all cases: cell-based, mouse
[1] = tested on: memory CD4 T cells; experiment: Inhibitor assay: OVA-specific memory CD4 T cells stimulated with OVA/APC, flow cytometry and intracellular cytokine staining
Method: (§1) Intracellular cytokine staining (ICS) analysis of signaling intermediates and cytokines was performed as previously described (Bingaman et al., 2005, supra; Ahmadzadeh and Farber, 2002, supra). Briefly, naive or memory CD4 T cells were cultured with APC and 800 ng/ml OVA peptide for time points of 0-48 hrs, and monensin (Golgistop™, BD Pharmingen) was added 6 hrs prior to harvesting. Cells were stained with antibodies for surface markers CD4, CD25, CD44, KJ1-26, fixed (Cytofix™ buffer, BD Pharmingen), permeabilized, and stained intracellularly with fluorochrome-conjugated antibodies to cytokines, signaling intermediates, and analyzed by flow cytometry.
(§2) Six-color flow cytometry was performed on BD LSR II flow cytometer (BD Biosciences) using FITC, PE, PERCP and PE-Cy7, allophycocyanin-Cy7, and allophycocyanin as fluorochromes (BD Biosciences, e-biosciences, Invitrogen/caltag). CD4 T cells stained with single color fluorochromes were used for compensation, background values were established with isotype controls, and data were analyzed using BD FACSDiva™ software (BD Biosciences). Fluorochrome-conjugated antibodies directed against CD4 (clone GK1.5), CD25 (PC61), CD69 (H1.2F3), CD62L (MEL-14), CD44 (IM7), CD3ε (145-2C11), IFN-γ (XMG1.2), phospho-ZAP-70 (17-P), phospho-PLC-γ (27/PLC), and phospho-Stat1 (clone 4a) were all purchased from BD-Pharmingen (San Diego, Calif.). PE- and APC-conjugated KJ1-26 specific for the DO11.10 TCR clonotype were purchased from CALTAG Laboratories (Burlingame, Calif.). PE- and FITC-conjugated ZAP-70 (1E7.2) was obtained from Invitrogen (Carlsbad, Calif.), and FITC-conjugated phospho-tyrosine (PT-66) from Sigma (St. Louis, Mo.), and phospho-p38 (28B10) and phospho-erk1/2 (E10) were purchased from Cell signaling technology, Inc. (Danvers, Mass.). For most analyses, a given marker was analyzed using several different fluorochromes to eliminate errors based on compensation.
(§3) Naive or memory CD4 T cells (1×10^6) were cultured with APC (3×10^6) in total volume of 1 ml of Clicks medium containing 800 ng/ml OVA peptide for time points of 0-24 hrs along with inhibitors cycloheximide (Sigma, 50 μg/ml) or piceatannol (Calbiochem, 12 μM of 3,4,3′,5′-tetrahydroxy-trans-stilbene). Solvent alone served as a vehicle control.

[2] = tested on: naive CD4 T cells; experiment: Inhibitor assay: OVA-specific naive CD4 T cells stimulated with OVA/APC, flow cytometry; conditions: cycloheximide 50 μg/ml
Method: as §1, §2, §3

[3] = tested on: naive and memory CD4 T cells; experiment: Viability of naive and memory CD4 T cells cultured with cycloheximide; conditions: after 24 hrs in cycloheximide, average
Method: as §3

[4] = tested on: ZAP-70; experiment: siRNA-mediated knockdown of ZAP-70 in OVA-specific memory CD4 T cells
Method: Cy3-labeled ZAP-70 specific siRNA Sense (5′→3′)/Cy3/GGCGGAUGGACUAAUUUACtt (SEQ ID NO: 10); Antisense (5′→3′) GUAAAUUAGUCCAUCCGCCtt (SEQ ID NO:11) or control GAPDH siRNA obtained from Ambion (Austin, Tex.) was delivered at a final concentration of 5 μM into 1.0×10^6 purified resting memory OVA-specific CD4 T cells using the mouse T cell nucleofector kit (Amaxa Inc., Gaithersburg, Md.) according to the manufacturers instructions and similar to the approach previously employed for siRNA transfections in mouse T cells (Sabbagh et al., 2006, Proc. Natl. Acad. Sci. USA 103:18703-18708). Following nucleofection, cell suspensions were cultured in media in 24 well plates with APC (2×10^6/well) and OVA-peptide (800 ng/ml), followed by incubation at 37° C. for 18 hrs. After 18 hrs, Golgistop (BD Pharmingen, USA) (0.66 μl/ml of culture) was added, cells were incubated for an additional 6 hrs, and subsequently staining for surface expression of CD4, KJ1-26 and CD25, and intracellular expression of ZAP-70 and IFN-γ as above.

[5] = memory CD4 T cells, OVA/APC 6 hrs, piceatannol 12 μM
[6] = naive CD4 T cells, +/-antigen, 6 hrs
[7] = naive T cells, antigenic stimulation 24 hrs
[8] = antigen-stimulated memory CD4 T cells, 24 hrs, cycloheximide 50 μg/ml
[9] = memory CD4 T cells, +/-antigen, 6 hrs, cycloheximide 50 μg/ml

Oc1cc(O)cc(/C=C/c2ccc(O)c(O)c2)c1 [piceatannol, 3,4,3′,5′-tetrahydroxy-trans-stilbene]
ZAP-70 expression, dose response ([1]; antigen-stimulated memory CD4 T cells, +/-OVA/APC, six hrs): reduced ZAP-70 expression in a dose-dependent fashion | ZAP-70 expression [1, 5]: specifically reduced | basal level of CD25 [1, 5]: without affecting | rapid IFN-γ production [1, 5]: striking inhibition; also recorded: completely blocked | total p-Tyr content [1, 5]: without affecting

C[C@@H]1C[C@@H]([C@H](O)CC2CC(=O)NC(=O)C2)C(=O)[C@@H](C)C1 [cycloheximide]
increases in total intracellular p-Tyr levels ([2]; activated naive CD4 T cells, 24 hrs): significantly inhibited | intracellular tyrosine phosphorylation [2, 6]: did not affect | resting state level of ZAP-70 [2, 6]: did not affect | up-regulation of CD25 expression [2, 7]: completely inhibited | up-regulation of ZAP-70 expression [2, 7]: completely inhibited | Viability [3]: 70% | CD25 up-regulation [1, 8]: inhibited | memory CD4 T cells maintaining high level of ZAP-70 expression [1, 8]: > 50% | intracellular tyrosine phosphorylation [1, 9]: did not affect | resting state level of ZAP-70 [1, 9]: did not affect | p-Tyr levels ([1]; memory T cells, 24 hrs, cycloheximide 50 μg/ml): did not affect

ZAP-70 specific siRNA: Cy3-labeled ZAP-70 specific siRNA, sense GGCGGAUGGACUAAUUUACtt (SEQ ID NO: 10), antisense GUAAAUUAGUCCAUCCGCCtt (SEQ ID NO:11) (sense GGCGGAUGGACUAAUUUACTT; antisense GUAAAUUAGUCCAUCCGCCTT; Cy3 label, further chemistry not given here)
early IFN-γ production ([4]; memory CD4 T cells, ZAP-70 downmodulated using siRNA): inhibited | reduction in the proportion of memory T cells producing IFN-γ ([4]; siRNA 5 μM, OVA/APC 24 hrs, vs siRNA- and GAPDH siRNA transfectants): 50% | ZAP-70 expression (MFI) ([4]; silenced (siRNA+) vs unsilenced (siRNA-) memory CD4 T cells, siRNA 5 μM, OVA/APC 24 hrs): reduction in ZAP-70 expression
